Reference: the supplement of paper PMC7840683
± gives the standard deviation of the averaged measurements.

Test system: HepaRG
Assay: LDH release cytotoxicity, % of total lysis control; higher = more cytotoxic
Conditions: 48 h
How it was run: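 HepaRG cells from a single lot were plated on collagen I-coated 96-well plates and treated in duplicate for 48 h with eight-point half-log series of test chemicals, starting at 100 µM, in serum-free induction medium containing 0.5% DMSO. Total lysis wells were given 0.1% Triton X. LDH released into 50 µL of spent medium was measured as resorufin fluorescence with CytoTox-ONE on a Tecan Safire. Percent cytotoxicity was normalized to on-plate vehicle and total lysis controls and then averaged across duplicates.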

SMILES: Nc1c(Cl)c(F)nc(OCC(=O)O)c1Cl [Fluroxypyr]
- LDH release cytotoxicity (0.03162 µM): -0.285 ± 0.61%
- LDH release cytotoxicity (0.1 µM): -1.46 ± 1.1%
- LDH release cytotoxicity (0.3162278 µM): -1.77 ± 1%
- LDH release cytotoxicity (1 µM): -1.29 ± 0.69%
- LDH release cytotoxicity (3.16228 µM): -1.07 ± 0.26%
- LDH release cytotoxicity (10 µM): -0.274 ± 0.24%
- LDH release cytotoxicity (31.6228 µM): 0.368 ± 0.6%
- LDH release cytotoxicity (100 µM): 1.75 ± 0.91%

SMILES: CC(O)CO (centres undefined) [1,2-Propylene glycol]
- LDH release cytotoxicity (0.03162 µM): -1.3 ± 0.42%
- LDH release cytotoxicity (0.1 µM): -0.939 ± 1.1%
- LDH release cytotoxicity (0.3162278 µM): -1.49 ± 0.33%
- LDH release cytotoxicity (1 µM): -1.94 ± 0.42%
- LDH release cytotoxicity (3.16228 µM): -1.55 ± 0.095%
- LDH release cytotoxicity (10 µM): -1.06 ± 0.055%
- LDH release cytotoxicity (31.6228 µM): -1.08 ± 0.23%
- LDH release cytotoxicity (100 µM): 0.548 ± 0.21%

SMILES: [N-]=[N+]=[N-] [Sodium azide]
- LDH release cytotoxicity (0.03162 µM): -0.587 ± 0.19%
- LDH release cytotoxicity (0.1 µM): -0.947 ± 0.078%
- LDH release cytotoxicity (0.3162278 µM): -1.17 ± 1.3%
- LDH release cytotoxicity (1 µM): -1.29 ± 0.45%
- LDH release cytotoxicity (3.16228 µM): -1.23 ± 0.56%
- LDH release cytotoxicity (10 µM): -0.668 ± 0.061%
- LDH release cytotoxicity (31.6228 µM): -0.413 ± 0.77%
- LDH release cytotoxicity (100 µM): 7.38 ± 1.2%

SMILES: CC(O)CCO (centres undefined) [1,3-Butanediol]
- LDH release cytotoxicity (0.03162 µM): -2.25 ± 1.4%
- LDH release cytotoxicity (0.1 µM): -2.15 ± 1.1%
- LDH release cytotoxicity (0.3162278 µM): -2.36 ± 0.29%
- LDH release cytotoxicity (1 µM): -2.52 ± 0.74%
- LDH release cytotoxicity (3.16228 µM): -2.18 ± 0.92%
- LDH release cytotoxicity (10 µM): -2.33 ± 0.35%
- LDH release cytotoxicity (31.6228 µM): -1.67 ± 0.8%
- LDH release cytotoxicity (100 µM): -0.781 ± 0.99%

SMILES: CNC(=O)Oc1ccccc1OC(C)C [Propoxur]
- LDH release cytotoxicity (0.03162 µM): -0.314 ± 0.63%
- LDH release cytotoxicity (0.1 µM): -0.642 ± 0.96%
- LDH release cytotoxicity (0.3162278 µM): 0.0787 ± 1.4%
- LDH release cytotoxicity (1 µM): -0.886 ± 0.72%
- LDH release cytotoxicity (3.16228 µM): 0.431 ± 0.29%
- LDH release cytotoxicity (10 µM): -0.355 ± 1.1%
- LDH release cytotoxicity (31.6228 µM): -0.0411 ± 0.99%
- LDH release cytotoxicity (100 µM): 2.29 ± 1.8%

SMILES: CC(C)COC(=O)c1ccccc1C(=O)OCC(C)C [Diisobutyl phthalate]
- LDH release cytotoxicity (0.03162 µM): -2.33 ± 0.23%
- LDH release cytotoxicity (0.1 µM): -2.4 ± 0.15%
- LDH release cytotoxicity (0.3162278 µM): -2.25 ± 0.78%
- LDH release cytotoxicity (1 µM): -2.06 ± 0.78%
- LDH release cytotoxicity (3.16228 µM): -2.34 ± 1.2%
- LDH release cytotoxicity (10 µM): -1.43 ± 1.4%
- LDH release cytotoxicity (31.6228 µM): -2.53 ± 0.83%
- LDH release cytotoxicity (100 µM): -1.03 ± 1.3%

SMILES: O=C=NCCCCCCN=C=O [1,6-Diisocyanatohexane]
- LDH release cytotoxicity (0.03162 µM): -1.38 ± 0.69%
- LDH release cytotoxicity (0.1 µM): -0.852 ± 1.4%
- LDH release cytotoxicity (0.3162278 µM): 0.3 ± 0.43%
- LDH release cytotoxicity (1 µM): -0.656 ± 0.29%
- LDH release cytotoxicity (3.16228 µM): 0.0821 ± 0.041%
- LDH release cytotoxicity (10 µM): 0.975 ± 0.72%
- LDH release cytotoxicity (31.6228 µM): 0.748 ± 0.51%
- LDH release cytotoxicity (100 µM): 0.578 ± 0.58%

SMILES: Oc1ccc2ccc3cccc4ccc1c2c34 [1-Hydroxypyrene]
- LDH release cytotoxicity (0.03162 µM): -0.176 ± 0.49%
- LDH release cytotoxicity (0.1 µM): -0.855 ± 0.05%
- LDH release cytotoxicity (0.3162278 µM): -1.52 ± 0.41%
- LDH release cytotoxicity (1 µM): -1.23 ± 0.16%
- LDH release cytotoxicity (3.16228 µM): -1.18 ± 0.77%
- LDH release cytotoxicity (10 µM): -0.495 ± 0.78%
- LDH release cytotoxicity (31.6228 µM): -0.838 ± 0.25%
- LDH release cytotoxicity (100 µM): 0.111 ± 0.6%

SMILES: CN(C)C(=S)[S-].CN(C)C(=S)[S-].[Zn+2] [Ziram]
- LDH release cytotoxicity (0.03162 µM): -1.6 ± 0.3%
- LDH release cytotoxicity (0.1 µM): -1.5 ± 0.095%
- LDH release cytotoxicity (0.3162278 µM): -1.92 ± 1.4%
- LDH release cytotoxicity (1 µM): -1.52 ± 0.12%
- LDH release cytotoxicity (3.16228 µM): -1.1 ± 0.12%
- LDH release cytotoxicity (10 µM): -0.764 ± 0.98%
- LDH release cytotoxicity (31.6228 µM): 37.6 ± 4%
- LDH release cytotoxicity (100 µM): 46.8 ± 1.6%

SMILES: CC=Cc1ccc(O)c(OC)c1 [Isoeugenol]
- LDH release cytotoxicity (0.03162 µM): -2.86 ± 1.2%
- LDH release cytotoxicity (0.1 µM): -2.42 ± 0.51%
- LDH release cytotoxicity (0.3162278 µM): -2.55 ± 0.96%
- LDH release cytotoxicity (1 µM): -3.05 ± 1.7%
- LDH release cytotoxicity (3.16228 µM): -2.354 ± 0.0053%
- LDH release cytotoxicity (10 µM): -2.16 ± 0.6%
- LDH release cytotoxicity (31.6228 µM): -2.4 ± 0.96%
- LDH release cytotoxicity (100 µM): -1.84 ± 1.7%

SMILES: CCNc1nc(Cl)nc(NC(C)(C)C#N)n1 [Cyanazine]
- LDH release cytotoxicity (0.03162 µM): -0.628 ± 0.49%
- LDH release cytotoxicity (0.1 µM): -0.139 ± 1.2%
- LDH release cytotoxicity (0.3162278 µM): -0.711 ± 0.36%
- LDH release cytotoxicity (1 µM): -1.27 ± 0.13%
- LDH release cytotoxicity (3.16228 µM): -0.482 ± 0.15%
- LDH release cytotoxicity (10 µM): -0.431 ± 0.068%
- LDH release cytotoxicity (31.6228 µM): -0.343 ± 0.24%
- LDH release cytotoxicity (100 µM): 0.714 ± 0.2%

SMILES: Nc1cc2c3c(c1)C(c1ccccc1)=NC(NC(=O)c1cccnc1)C(=O)N3CC2 (centres undefined) [CI-1044]
- LDH release cytotoxicity (0.03162 µM): -1.32 ± 0.016%
- LDH release cytotoxicity (0.1 µM): -0.234 ± 0.4%
- LDH release cytotoxicity (0.3162278 µM): -1.37 ± 0.23%
- LDH release cytotoxicity (1 µM): -0.0936 ± 0.47%
- LDH release cytotoxicity (3.16228 µM): -0.301 ± 0.14%
- LDH release cytotoxicity (10 µM): 0.515 ± 1.5%
- LDH release cytotoxicity (31.6228 µM): 0.683 ± 0.68%
- LDH release cytotoxicity (100 µM): 0.815 ± 1.6%

SMILES: O=NO [Sodium nitrite]
- LDH release cytotoxicity (0.03162 µM): -3.61 ± 3.5%
- LDH release cytotoxicity (0.1 µM): 0.52 ± 1.1%
- LDH release cytotoxicity (0.3162278 µM): -0.867 ± 0.14%
- LDH release cytotoxicity (1 µM): -2.02 ± 0.5%
- LDH release cytotoxicity (3.16228 µM): -1.06 ± 0.48%
- LDH release cytotoxicity (10 µM): -0.549 ± 0.34%
- LDH release cytotoxicity (31.6228 µM): -1.15 ± 0.46%
- LDH release cytotoxicity (100 µM): 0.684 ± 0.51%

SMILES: N#Cc1c(Cl)cccc1Cl [Dichlobenil]
- LDH release cytotoxicity (0.03162 µM): 0.00697 ± 0.72%
- LDH release cytotoxicity (0.1 µM): -0.347 ± 1.1%
- LDH release cytotoxicity (0.3162278 µM): -1.05 ± 0.013%
- LDH release cytotoxicity (1 µM): -1.65 ± 0.47%
- LDH release cytotoxicity (3.16228 µM): 0.43 ± 1.9%
- LDH release cytotoxicity (10 µM): 0.582 ± 0.39%
- LDH release cytotoxicity (31.6228 µM): 1.87 ± 0.054%
- LDH release cytotoxicity (100 µM): 1.99 ± 1.2%

SMILES: OCCC(F)(F)C(F)(F)C(F)(F)C(F)(F)C(F)(F)C(F)(F)F [6:2 Fluorotelomer alcohol]
- LDH release cytotoxicity (0.03162 µM): -0.419 ± 0.26%
- LDH release cytotoxicity (0.1 µM): -1.392 ± 0.012%
- LDH release cytotoxicity (0.3162278 µM): -1.67 ± 0.41%
- LDH release cytotoxicity (1 µM): -2.28 ± 0.32%
- LDH release cytotoxicity (3.16228 µM): -1.52 ± 0.59%
- LDH release cytotoxicity (10 µM): -1.12 ± 1.1%
- LDH release cytotoxicity (31.6228 µM): -1.141 ± 0.005%
- LDH release cytotoxicity (100 µM): -0.148 ± 0.73%

SMILES: CSC1=NC(C)(c2ccccc2)C(=O)N1Nc1ccccc1 (centres undefined) [Fenamidone]
- LDH release cytotoxicity (0.03162 µM): -1.05 ± 0.0084%
- LDH release cytotoxicity (0.1 µM): -1.31 ± 0.79%
- LDH release cytotoxicity (0.3162278 µM): -1.11 ± 0.55%
- LDH release cytotoxicity (1 µM): -1.54 ± 1.1%
- LDH release cytotoxicity (3.16228 µM): -1.63 ± 0.022%
- LDH release cytotoxicity (10 µM): -2.26 ± 0.039%
- LDH release cytotoxicity (31.6228 µM): 6.59 ± 0.97%
- LDH release cytotoxicity (100 µM): 15.2 ± 0.075%

SMILES: CCc1cc(SCc2sc(-c3ccc(C(F)(F)F)cc3)nc2CN2CCN(c3ccc(OC)cc3)CC2)ccc1OCC(=O)O
- LDH release cytotoxicity (0.03162 µM): -1.41 ± 0.0016%
- LDH release cytotoxicity (0.1 µM): -1.04 ± 0.17%
- LDH release cytotoxicity (0.3162278 µM): -0.879 ± 1.1%
- LDH release cytotoxicity (1 µM): -1.49 ± 0.045%
- LDH release cytotoxicity (3.16228 µM): -2.29 ± 0.43%
- LDH release cytotoxicity (10 µM): 21 ± 2.3%
- LDH release cytotoxicity (31.6228 µM): 70.2 ± 1.2%
- LDH release cytotoxicity (100 µM): 84 ± 2.7%

SMILES: O=c1c(-c2ccc(O)cc2)coc2cc(O)ccc12 [7,4'-Dihydroxyisoflavone]
- LDH release cytotoxicity (0.03162 µM): -1.77 ± 0.55%
- LDH release cytotoxicity (0.1 µM): -1.95 ± 0.049%
- LDH release cytotoxicity (0.3162278 µM): -1.45 ± 0.29%
- LDH release cytotoxicity (1 µM): -2.21 ± 0.22%
- LDH release cytotoxicity (3.16228 µM): -1.87 ± 0.47%
- LDH release cytotoxicity (10 µM): -0.343 ± 0.097%
- LDH release cytotoxicity (31.6228 µM): -0.854 ± 0.4%
- LDH release cytotoxicity (100 µM): 0.307 ± 0.89%
